# Assay results from PubChem BioAssay AID179 (DTP/NCI, 2004).
# Active and inactive are the calls of the source.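 Rule for the calls: active = compounds giving half or more protection of infected cells from virus-caused growth loss, again on retest; inactive = the rest.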 Where a SMILES comes first, the peptide text is derived from it. The star is where a group is joined. Cbz = O=C(OCc1ccccc1)*; Boc = CC(C)(C)OC(=O)*; tBu = CC(C)(C)*
# Tested on: CEM cells HIV-1 protection, formazan growth assay
# Assay: NCI AIDS Antiviral Assay
# Conditions: for IC50: measured here: growth of uninfected CEM cells
# In short: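 Steps: treat uninfected and HIV-1-infected human CEM cells at five drug levels; quantify growth by soluble formazan; retest any compound reaching 50% protection; classify actives from the retest.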
SMILES,EC50 [µM],IC50 [µM],outcome
COc1cc(N=NN(C)C)c(C(C)c2c3cc(OC)c(OC)cc3cc[n+]2C)cc1OC (stereo unspecified),> 200,20.9,–
Cc1cc2c(cc1C)[n+]([O-])c(NCCCN(C)C)c(C#N)[n+]2[O-],> 200,72.4,–
COC(=O)C(=O)CC(=O)CCn1[nH]c(=O)c(Cl)c(Cl)c1=O,> 389,295,–
O=S(=O)(O)c1ccc(N=Nc2ccc(N=Nc3c(O)c(S(=O)(=O)O)cc4cc(S(=O)(=O)O)ccc34)cc2)cc1,–,–,inactive
COc1ccc(CC2c3cc(OC)c(OC)c(OC)c3CC[N+]2(C)C)cc1Oc1ccc(CC2c3cc4c(c(OC)c3CCN2C)OCO4)cc1 (stereo unspecified),–,–,inactive
COC1=NC2=CC(=O)c3c(c(OC(C)=O)c(C)c4c3C(=O)C(C)(O/C=C/C(OC)C(C)C(OC(C)=O)C(C)C(O)C(C)C(OC(C)=O)C(C)/C=C/C=C\1C)O4)C2=O (stereo unspecified),> 200,16.6,–
Cc1ccc(C)c2c1C1CCCCC3(OCCCO3)C21O (stereo unspecified),> 200,> 200,–
COc1c(Cl)cc(C(=CCN[C@@H]2CC[C@@]3(C)[C@@H](CC[C@@H]4[C@@H]3CC[C@]3(C)[C@@H]([C@H](C)CCCC(C)C)CC[C@@H]43)C2)c2cc(Cl)c(OC)c(C(=O)O)c2)cc1C(=O)O,> 100,61.7,–
C[n+]1ccc(-c2c3nc(c(-c4cc[n+](C)cc4)c4ccc([n-]4)c(-c4cc[n+](C)cc4)c4nc(c(-c5cc[n+](C)cc5)c5ccc2[n-]5)C=C4)C=C3)cc1.[I-].[Zn+2],> 72.4,14.1,–
CCCOc1csc([C@H]2CCC3[C@@H]4CC=C5C[C@@H](OC(C)=O)CC[C@]5(C)C4CC[C@@]32C)n1 (stereo partly specified),> 55,> 55,–
COc1cc(Nc2nc3cc(C(F)(F)F)ccc3nc2-c2ccccc2)cc(OC)c1OC,> 41.7,> 41.7,–
COc1cc2c(c(Cl)c1OC)CCN(C)CC2c1ccccc1 (stereo unspecified),> 200,70.8,–
O=C(O)/C=C/c1ccc2c(c1)CC1(Cc3ccccc3C1)C2,> 200,49,–
Cc1c(C#N)c(=O)[nH]c(=O)n1CCN1CCN(C(=O)NCCCCCCNC(=O)N2CCN(CCn3c(C)c(C#N)c(=O)[nH]c3=O)CC2)CC1,–,–,inactive
Cc1nonc1C(=O)NN,> 631,> 631,–
COc1ccc(C[C@]23CCC(=O)N2CCc2cc(OC)c(O)cc23)cc1O,–,–,inactive
N#CC12CCC(O)C(CC1)C2=O (stereo unspecified),–,–,inactive
CCOC(=O)NNC(=O)NCCNC(=O)NNC(=O)OCC,> 200,> 200,–
C=C(NC(=O)C(=C)NC(=O)c1csc(C2=NC3c4csc(n4)C4NC(=O)c5csc(n5)C(C(C)(O)C(C)O)NC(=O)C5CSC(=N5)/C(=C/C)NC(=O)C(C(C)O)NC(=O)c5csc(n5)C3(CC2)NC(=O)C(C)NC(=O)C(=C)NC(=O)C(C)NC(=O)C(C(C)CC)NC2C=Cc3c(C(C)O)cc(nc3C2O)C(=O)OC4C)n1)C(N)=O (stereo unspecified),8.91,43.7,–
O=C(CCCN1CCC2(CC1)OC(=O)N(c1ccccc1)C2=O)c1ccccc1,> 200,> 200,–
Nc1ccc(S(=O)(=O)Nc2nccs2)cc1N=Nc1ccccc1[N+](=O)[O-],> 200,> 200,–
O=S1CC(c2ccccc2)=C(c2ccccc2)CS1 (stereo unspecified),> 200,47.9,–
CCCCCC=C(c1ccc(OC)c(S(=O)(=O)N(C)C)c1)c1ccc(OC)c(S(=O)(=O)N(C)C)c1,> 35.5,> 35.5,–
CCOC(=O)c1nc2c(OC)nn(O)cc-2c1[N+](=O)[O-],> 457,5.75,–
COC1c2ccccc2C2C(Cl)(Cl)C23c2ccccc2C13 (stereo unspecified),> 12,> 12,–
C/C(=C\C(=O)Nc1ccc2n[nH]nc2c1)Nc1ccc2n[nH]nc2c1,–,–,inactive
CC(=O)Nc1c(C)cc2c(nc3n2CCC3OC(C)=O)c1[N+](=O)[O-] (stereo unspecified),> 200,> 200,–

SMILES,EC50 [µM],IC50 [µM],outcome
O=C(O)[C@H]1CSCN1C(=O)c1ccccc1SSc1ccccc1C(=O)N1CSC[C@H]1C(=O)O,> 200,> 200,–
NC(=N\N=C\C(O)C(O)C(O)C(O)C(=O)O)/C(N)=N/N=C/C(O)C(O)C(O)C(O)C(=O)O (stereo unspecified),–,–,inactive
[N-]=[N+]=NC1CC(n2cc(COCC(F)(F)F)c(=O)[nH]c2=O)OC1CO (stereo unspecified),5.75,251,–
CC(C)NC(=O)OCc1c(COC(=O)NC(C)C)n(C)c2c1ccc1cc(Cl)c(Cl)cc12,> 200,2.95,–
O=C(CCCc1cccc2[nH]c3c(c12)CN(Cc1ccccc1)CC3)c1ccc(F)cc1,> 200,14.5,–
Cc1ccc(/C=C/C(=O)c2sc(C(N)=S)nc2C)cc1,> 85.1,> 85.1,–
c1ccc(SCCC(Sc2ccccc2)Sc2ccccc2)cc1,> 200,93.3,–
CC(=O)[O-].[Mn+3].[O-]c1ccc(Cl)cc1C=NCCN=Cc1cc(Cl)ccc1[O-],> 240,12,–
O=C(c1ccccc1)C(O)(Cc1ccccc1)c1ccccc1 (stereo unspecified),> 85.1,70.8,–
NC(N)=NS(=O)(=O)c1ccc(N=c2c3ccccc3n(-c3ccccc3)c3ccccc23)cc1,–,–,inactive
O=c1[nH]cnc2c1C(c1ccccc1)c1ccccc1-2 (stereo unspecified),> 38,> 38,–
Cc1ccccc1-n1c(=O)c2ncn(CCCl)c2n(-c2ccccc2C)c1=S,> 200,102,–
COc1cccc(NC(=O)C(=O)C2C=CCS2(=O)=O)c1 (stereo unspecified),> 63.1,> 63.1,–
O=S(=O)(O)CCS(=O)(=O)O,> 200,> 200,–
Nc1nc(Cl)cc(NCCCCCCNc2cc(Cl)nc(N)n2)n1,–,–,inactive
CCOC(=O)CCCc1cc(=O)c2c(C)c3[nH]c4ccc(Cl)cc4c3c(C)c2[nH]1,> 200,34.7,–
O=P1(Oc2ccccc2)NCc2ncccc2O1 (stereo unspecified),> 200,> 200,–
Cc1cc(C)c2nc3c(c(C(O)C4CCCCN4)c2c1)CC/C3=C\c1ccc(Cl)cc1 (stereo unspecified),> 22.9,> 22.9,–
COC(=O)CC1(C(=O)OC)C2CCCN2C2(C#N)c3ccccc3CCC12Br (stereo unspecified),> 41.7,> 41.7,–
O=S(=O)(O)C(O)/C=C/c1ccccc1 (stereo unspecified),–,–,inactive
N#C/C(=C\c1cccc(C#N)c1)C(=O)O,> 50.1,> 50.1,–
NC(=S)N/N=C1\CCCC1C(O)(C(F)(F)Cl)C(F)(F)Cl (stereo unspecified),> 200,38.9,–
COc1nc(N2CCNCC2)nc2c1CCCC2,–,–,inactive
Cc1[nH]n(C(=O)Cc2ccccc2)c(=O)c1/C=C1\C(=O)C=Cc2ccccc21,> 51.3,> 51.3,–
CNC(=O)c1ccccc1CNC(=S)Nc1cccc(C)c1,> 200,> 200,–
O=C(O)CCCCC1CCSS1 (stereo unspecified),186,> 200,–
CC(OC(C)(C)C)C(NC(=O)C(CCCCNC(=O)OC(C)(C)C)NC(=O)C(Cc1c[nH]c2ccccc12)NC(=O)C(Cc1ccccc1)NC(=O)OCc1ccccc1)C(=O)NC(Cc1ccccc1)C(=O)O (stereo unspecified) (Cbz-FWK(Boc)T(tBu)F-OH; configuration not given here),> 200,35.5,–

SMILES,EC50 [µM],IC50 [µM],outcome
[NH-]/N=C(\[O-])c1ccncc1.[NH-]/N=C(\[O-])c1ccncc1.[Ni+2],> 100,> 100,–
N.N.N.N.N.N.O=N[O-].[Br-].[Co+3].[Co+3].[OH3+].[OH3+],–,–,inactive
Cc1nc2ccccc2c(=O)n1NC(=O)c1ccccc1[N+](=O)[O-],> 200,> 200,–
Cc1nnc2sc(/C=C/c3ccccc3)nn12,–,> 200,inactive
CC1=N/C(=C\c2cccc(C#N)c2)C(=O)O1,> 170,97.7,–
CC(C)(O)[C@@H]1CCC(C)([C@H]2[C@@H](O)CC3(C)C4CC(OC5OC(CO)C(O)C(O)C5O)C5C(C)(C)[C@@H](OC6OCC(O)C(O)C6O)CC[C@@]56C[C@@]46CC[C@]23C)O1 (stereo partly specified),> 120,> 120,–
CSc1nc(Cl)c2c(n1)Sc1nc3ccccc3n1N=C2,> 100,55,–
Cn1cnc([N+](=O)[O-])c1Sc1nc2ccccc2[nH]1,> 19.1,6.92,–
Cc1cnc2cc(Cl)ccc2c1NCCN(CC(C)C)CC(C)C,> 1,> 1,–
C=CCOC(=O)C1C2OC3(C(C(=O)OC)=C2C(=O)OC)c2ccccc2CCC13 (stereo unspecified),> 200,1.15,–
Cc1c2c(n(CCN(C)C)c1C)NN=C(C#N)S2(=O)=O,> 200,> 200,–
Cn1c(=O)[nH]c2c([nH]c(=O)c(=O)n2C)c1=O,> 200,> 200,–
C=C1CC(COc2ccc3ccc(=O)oc3c2)(c2ccccc2)OC1=O (stereo unspecified),> 2,0.724,–
CS(=O)(=O)Oc1cccc(/C=N/N=C(\N)NO)c1,> 214,36.3,–
O=C(Nc1ccccc1)C1CC=C2CCC3OC(=O)C1C23 (stereo unspecified),> 331,> 331,–
CN(C)c1ccc(/C=C\C#N)cc1,> 97.7,> 97.7,–
CCOC(=O)C1=NN(c2ccccc2)C(=O)/C1=C\N1CCNC1=S,> 135,> 100,–
O=c1ccc2ccc(O)c3c4c(=O)ccc5ccc(O)c(c1c23)c54,–,–,inactive
C/C=C(/C)C(=O)O[C@@H]1CCN2CC[C@H](COC(=O)/C(=C/C)CO)C12 (stereo partly specified),> 200,107,–
CS(=O)(=O)CCC1CCC(=O)O1 (stereo unspecified),> 200,182,–
Cc1ccc(S(=O)(=O)OCCn2cnc3nc(NC(=O)c4ccccc4)[nH]c(=O)c32)cc1,> 57.5,> 57.5,–
COc1cccc(N2N=C3c4ccccc4-n4c(nc5ccccc54)C3C2N)c1 (stereo unspecified),> 200,> 200,–
Cn1c(=O)c2c(no[n+]2[O-])n(C)c1=O,> 200,13.2,–
CCOC(=O)CN1C(=O)S/C(=C2\C(=O)N(C)c3ccccc32)C1=O,> 200,> 200,–
N#Cc1ccccc1NC(=O)C(=O)C(C(=O)c1ccccc1-c1ccccc1)C1OC(=O)c2ccccc21 (stereo unspecified),> 52.5,26.3,–
COc1cc2cc(c1Cl)N(C)C(=O)CC(OC(=O)C(C)N(C)C(=O)C(C)C)C1(C)OC1C(C)C1CC(O)(NC(=O)O1)C(OC)/C=C/C=C(C)C2OC (stereo unspecified),–,–,inactive
